{"source": "patent US20110262477A1", "about": "(priority 2008, published 2011)", "key": {"[1]": {"target": "T1, 5′-ecto nucleotidase (human homologue of bacterial AdsA) (Homo sapiens, UniProt P21589)", "T1 sequence (P21589 27-549)": "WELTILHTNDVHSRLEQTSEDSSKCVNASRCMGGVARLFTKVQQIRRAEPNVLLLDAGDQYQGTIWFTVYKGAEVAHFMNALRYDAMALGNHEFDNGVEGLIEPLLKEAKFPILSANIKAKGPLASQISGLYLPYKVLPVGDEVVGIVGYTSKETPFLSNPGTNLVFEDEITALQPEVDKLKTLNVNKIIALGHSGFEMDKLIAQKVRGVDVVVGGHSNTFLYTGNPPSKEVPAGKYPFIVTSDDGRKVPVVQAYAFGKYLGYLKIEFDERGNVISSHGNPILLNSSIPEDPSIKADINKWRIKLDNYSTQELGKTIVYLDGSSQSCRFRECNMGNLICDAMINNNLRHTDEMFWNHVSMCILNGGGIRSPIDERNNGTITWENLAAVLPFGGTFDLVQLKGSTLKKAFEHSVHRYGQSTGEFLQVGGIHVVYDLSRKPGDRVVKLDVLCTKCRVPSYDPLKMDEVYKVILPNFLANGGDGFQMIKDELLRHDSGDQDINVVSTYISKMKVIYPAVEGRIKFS", "conditions": "cited from earlier work"}, "[2]": {"system": "secreted 5′-nucleotidases from trophozoites of Trichomonas gallinae", "conditions": "Borges et al., 2007; cited from earlier work"}, "[3]": {"system": "adsA mutant staphylococci", "assay": "Survival of adsA staphylococci in rat blood with added adenosine (FIG. 17F)", "format": "cell-based, S. aureus", "conditions": "addition of 1-100 μM adenosine"}, "S. aureus": {"system": "S. aureus", "conditions": "individual subunit vaccine antigens; none afforded complete protection; cited from earlier work"}, "AdsA": {"system": "AdsA", "format": "biochemical, S. aureus"}, "[4]": {"system": "Nc1ncnc2c1ncn2[C@@H]1O[C@H](COP(=O)(O)O)[C@@H](O)[C@H]1O", "assay": "purified protein, by the assay type", "conditions": "pH 7.5; 37.0 °C"}, "[5]": {"target": "T2, 5′-nucleotidases from rat liver membrane (Rattus norvegicus, UniProt P21588)", "T2 sequence (P21588 29-551)": "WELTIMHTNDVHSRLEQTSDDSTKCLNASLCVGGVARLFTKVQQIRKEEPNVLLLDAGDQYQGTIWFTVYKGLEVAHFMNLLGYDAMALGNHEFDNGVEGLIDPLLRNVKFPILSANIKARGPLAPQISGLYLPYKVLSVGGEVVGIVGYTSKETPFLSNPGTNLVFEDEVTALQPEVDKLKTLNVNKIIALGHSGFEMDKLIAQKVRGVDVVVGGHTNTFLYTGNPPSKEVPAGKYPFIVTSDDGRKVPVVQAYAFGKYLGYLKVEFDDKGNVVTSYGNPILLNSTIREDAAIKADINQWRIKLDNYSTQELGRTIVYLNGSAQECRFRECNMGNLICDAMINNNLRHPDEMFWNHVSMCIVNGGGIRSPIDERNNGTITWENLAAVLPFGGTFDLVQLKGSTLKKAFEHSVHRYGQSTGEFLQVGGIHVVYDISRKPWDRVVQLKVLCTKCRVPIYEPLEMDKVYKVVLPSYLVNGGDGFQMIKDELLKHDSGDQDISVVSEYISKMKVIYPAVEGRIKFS", "conditions": "Uchino et al., 1986; cited from earlier work"}, "[6]": {"system": "5′-nucleotidases from snake venom", "conditions": "Uchino et al., 1986; cited from earlier work"}, "S. aureus Newman": {"system": "S. aureus Newman", "assay": "Eap, Emp vaccination, murine renal abscess model (FIG. 5)", "conditions": "for histological lesions: kidneys of immunized mice, PBS mock 4/5, FIG. 5E"}}}
{"molecule": "Nc1ncnc2c1ncn2[C@@H]1O[C@H](COP(=O)(O)CP(=O)(O)O)[C@@H](O)[C@H]1O", "note": "[AOPCP, α,β-methylene adenosine 5′-diphosphate]", "values": [{"measurement": "inhibition of 5′-ecto nucleotidase", "setting": "[1]", "value": "inhibitor"}, {"measurement": "inhibition of secreted 5′-nucleotidases", "setting": "[2]", "value": "does not inhibit"}]}
{"molecule": "Nc1ncnc2c1ncn2[C@@H]1O[C@H](CO)[C@@H](O)[C@H]1O", "note": "[adenosine]", "values": [{"measurement": "survival of adsA mutant staphylococci in blood", "setting": "[3]", "value": "dose-dependent increase in the survival"}]}
{"molecule": "IsdB: purified S. aureus sortase A substrate surface protein used as subunit vaccine antigen", "values": [{"measurement": "reduction in bacterial load", "setting": "S. aureus", "value": "significant reduction in bacterial load"}]}
{"molecule": "SdrD: purified S. aureus sortase A substrate surface protein used as subunit vaccine antigen", "values": [{"measurement": "reduction in bacterial load", "setting": "S. aureus", "value": "significant reduction in bacterial load"}]}
{"molecule": "[Cl-].[Cl-].[Zn+2]", "note": "[ZnCl2]", "values": [{"measurement": "inhibition of adenosine synthase activity", "setting": "AdsA", "value": "completely inhibited"}]}
{"molecule": "SdrE: purified S. aureus sortase A substrate surface protein used as subunit vaccine antigen", "values": [{"measurement": "reduction in bacterial load", "setting": "S. aureus", "value": "significant reduction in bacterial load"}]}
{"molecule": "Staphylococcus aureus adenosine synthase A (AdsA, SasH), purified soluble recombinant form AdsA1-400 (from GST-AdsA expressed in Escherichia coli), SEQ ID NO:36 (Staphylococcus aureus subsp. aureus NCTC 8325)", "values": [{"measurement": "Km", "setting": "[4]", "value": 0.044, "unit": "µM"}]}
{"molecule": "O=S(=O)([O-])[O-].[Cu+2]", "note": "[CuSO4]", "values": [{"measurement": "inhibition of adenosine synthase activity", "setting": "AdsA", "value": "completely inhibited"}]}
{"molecule": "nucleoticidin", "values": [{"measurement": "inhibitory activity against 5′-nucleotidases", "setting": "[5]", "value": "potent inhibitory activity"}, {"measurement": "inhibitory activity against 5′-nucleotidases", "setting": "[6]", "value": "potent inhibitory activity"}]}
{"molecule": "melanocidins A and B", "values": [{"measurement": "inhibitory activity against 5′-nucleotidases", "setting": "[5]", "value": "potent inhibitory activity"}, {"measurement": "inhibitory activity against 5′-nucleotidases", "setting": "[6]", "value": "potent inhibitory activity"}]}
{"molecule": "Emp: recombinant His-tagged staphylococcal envelope associated protein Emp (SEQ ID NO:2) purified from E. coli, vaccine antigen (protein, listed as Staphylococcus aureus, His-tag) MKKKLLVLTMSTLFATQIMNSNHAKASVTESVDKKFVVPESGINKIIPAYDEFKNSPKVNVSNLTDNKNFVASEDKLNKIADSSAASKIVDKNFVVPESKLGNIVPEYKEINNRVNVATNNPASQQVDKHFVAKGPEVNRFITQNKVNHHFITTQTHYKKVITSYKSTHVHKHVNHAKDSINKHFIVKPSESPRYTHPSQSLIIKHHFAVPGYHAHKFVTPGHASIKINHFCVVPQINSFKVIPPYGHNSHRMHVPSFQNNTTATHQNAKVNKAYDYKYFYSYKVVKGVKKYFSFSQSNGYKIGKPSLNIKNVNYQYAVPSYSPTHYVPEFKGSLPAPRV", "values": [{"measurement": "titers of reactive IgG", "setting": "S. aureus Newman; ELISA IgG titers from vaccinated mice, FIG. 5D", "value": "> 64,000"}, {"measurement": "histological lesions", "setting": "S. aureus Newman", "value": "1/5"}]}
{"molecule": "IsdA: purified S. aureus sortase A substrate surface protein used as subunit vaccine antigen (protein, listed as Staphylococcus sp.) MTKHYLNSKYQSEQRSSAMKKITMGTASIILGSLVYIGADSQQVNAATEATNATNNQSTQVSQATSQPINFQVQKDGSSEKSHMDDYMQHPGKVIKQNNKYYFQTVLNNASFWKEYKFYNANNQELATTVVNDNKKADTRTINVAVEPGYKSLTTKVHIVVPQINYNHRYTTHLEFEKAIPTLADAAKPNNVKPVQPKPAQPKTPTEQTKPVQPKVEKVKPTVTTTSKVEDNHSTKVVSTDTTKDQTKTQTAHTVKTAQTAQEQNKVQTPVKDVATAKSESNNQAVSDNKSQQTNKVTKHNETPKQASKAKELPKTGLTSVDNFISTVAFATLALLGSLSLLLFKRKESK", "values": [{"measurement": "reduction in bacterial load", "setting": "S. aureus", "value": "significant reduction in bacterial load"}]}
{"molecule": "Eap: recombinant His-tagged staphylococcal envelope associated protein Eap (SEQ ID NO:4) purified from E. coli, vaccine antigen (protein, listed as Staphylococcus aureus, His-tag) MKFKSLITTTLALGVLASTGANFNNNEASAAAKPLDKSSSSLHHGYSKVHVPYAITVNGTSQNILSSLTFNKNQNISYKDLEDRVKSVLKSDRGISDIDLRLSKQAKYTVYFKNGTKKVIDLKAGIYTADLINTSEIKAININVDTKKQVEDKKKDKANYQVPYTITVNGTSQNILSNLTFNKNQNISYKDLEDKVKSVLESNRGITDVDLRLSKQAKYTVNFKNGTKKVIDLKSGIYTANLINSSDIKSININVDTKKHIENKAKRNYQVPYSINLNGTSTNILSNLSFSNKPWTNYKNLTSQIKSVLKHDRGISEQDLKYAKKAYYTVYFKNGGKRILQLNSKNYTANLVHAKDVKRIEITVKTGTKAKADRYVPYTIAVNGTSTPILSDLKFTGDPRVGYKDISKKVKSVLKHDRGIGERELKYAKKATYTVHFKNGTKKVININSNISQLNLLYVQDIKKIDIDVKTGTKAKADSYVPYTIAVNGTSTPILSKLKISNKQLISYKYLNDKVKSVLKSERGISDLDLKFAKQAKYTVYFKNGKKQVVNLKSDIFTPNLFSAKDIKKIDIDVKQYTKSKKNK", "values": [{"measurement": "histological lesions", "setting": "S. aureus Newman", "value": "1/5"}]}
